Experimental data from ChEMBL document CHEMBL1201862, “PubChem BioAssay data set” (2004).
Calls of active or inactive are those of the source.

What was measured:
[1] = system: BJ; assay: growth inhibition of engineered Ras-driven BJ cells – cell-based, alamar blue fluorescence, cherrypicked samples, dose response (AID 2631); assay type: functional; settings: Homo sapiens;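 further: confirmatory dose-response assay in RAS-dependent BJ fibroblasts engineered with TERT, LT and ST, with cytotoxicity read by fluorescence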
[2] = system: BJ; assay: cells; assay type: functional, cell-based; settings: Homo sapiens
[3] = DRD fibroblast viability loss – cell-based, non-viral oncogenic, luminescence, dose response (AID 1934); assay type: functional; settings: Homo sapiens
[4] = system: BJ; assay: BJ-TERT fibroblast viability loss – cell-based, RAS-independent, luminescence, dose response (AID 1933); assay type: functional; settings: Homo sapiens
[5] = system: BJ; assay: BJ-TERT-LT-ST fibroblast viability loss – cell-based, RAS-independent, luminescence, dose response (AID 1935); assay type: functional; settings: Homo sapiens;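 further: BJ fibroblasts immortalized with TERT plus LT and ST oncogenes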
[6] = biological target: T1, Endoribonuclease toxin MazF (Escherichia coli K-12, UniProt P0AE70); assay: substrate-only fluorescence increase artefacts – biochemical, single-stranded RNase substrate, counter-screen for MazEF activator project, dose response (AID 588502); assay type: functional
T1 sequence (P0AE70 whole entry): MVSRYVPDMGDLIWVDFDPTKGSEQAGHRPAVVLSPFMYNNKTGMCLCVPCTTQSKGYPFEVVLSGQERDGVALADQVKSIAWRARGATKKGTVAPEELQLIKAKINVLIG

[7] = biological target: T1, Endoribonuclease toxin MazF; assay: activation of MazEF endoribonuclease cleavage – biochemical, fluorescence, single-stranded RNA substrate, uHTS hits, dose response (AID 588481); assay type: functional
[8] = biological target: T2, Zinc finger protein mex-5 (Caenorhabditis elegans, UniProt Q9XUB2); assay: potency of MEX-5 RNA-binding blockers – biochemical, C. elegans, fluorescence polarization, dose response (AID 1960)
T2 sequence (Q9XUB2 whole entry): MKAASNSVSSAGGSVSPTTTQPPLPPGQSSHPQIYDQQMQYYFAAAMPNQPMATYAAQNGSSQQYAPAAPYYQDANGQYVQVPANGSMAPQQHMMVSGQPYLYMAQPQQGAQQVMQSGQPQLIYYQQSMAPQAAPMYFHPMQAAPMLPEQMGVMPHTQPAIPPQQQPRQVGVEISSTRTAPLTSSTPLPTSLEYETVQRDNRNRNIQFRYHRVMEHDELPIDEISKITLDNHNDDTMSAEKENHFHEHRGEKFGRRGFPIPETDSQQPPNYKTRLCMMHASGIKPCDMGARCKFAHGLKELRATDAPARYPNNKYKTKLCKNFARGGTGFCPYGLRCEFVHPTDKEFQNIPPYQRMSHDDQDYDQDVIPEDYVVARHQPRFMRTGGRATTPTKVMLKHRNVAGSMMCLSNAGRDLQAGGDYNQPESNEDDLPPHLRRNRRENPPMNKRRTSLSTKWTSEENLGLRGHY

[9] = biological target: T3, RNA-binding protein pos-1 (Caenorhabditis elegans, UniProt G5EF15); assay: disruptors of C. elegans POS-1 RNA interaction – biochemical, fluorescence polarization, dose response (AID 1964);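 further: purified POS-1 fused to maltose binding protein made in E. coli; potency of compounds blocking POS-1 binding to fluorescent RNA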
T3 sequence (G5EF15 whole entry): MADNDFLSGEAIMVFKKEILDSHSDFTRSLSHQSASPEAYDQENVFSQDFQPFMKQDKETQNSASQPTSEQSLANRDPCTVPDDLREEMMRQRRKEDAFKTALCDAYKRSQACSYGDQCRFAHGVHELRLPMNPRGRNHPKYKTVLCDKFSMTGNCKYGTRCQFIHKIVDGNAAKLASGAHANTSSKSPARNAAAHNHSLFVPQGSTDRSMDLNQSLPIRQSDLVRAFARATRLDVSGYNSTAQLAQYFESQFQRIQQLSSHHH

[10] = biological target: T4, Sentrin-specific protease 8 (Homo sapiens, UniProt Q96LD8); assay: inhibition of human SENP8 cleavage activity – biochemical, luminescence, SAR follow-up (AID 504501); assay type: functional
T4 sequence (Q96LD8 whole entry): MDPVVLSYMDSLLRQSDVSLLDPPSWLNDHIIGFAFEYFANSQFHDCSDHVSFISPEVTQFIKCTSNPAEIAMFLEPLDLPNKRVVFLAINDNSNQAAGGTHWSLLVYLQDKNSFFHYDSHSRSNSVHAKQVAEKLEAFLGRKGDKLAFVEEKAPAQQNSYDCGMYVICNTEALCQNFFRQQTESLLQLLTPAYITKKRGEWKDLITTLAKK

[11] = biological target: T5, Sentrin-specific protease 6 (Homo sapiens, UniProt Q9GZR1); assay: SAR Analysis of small molecule inhibitors of Sentrin-specific protease 6 (SENP6) using a Luminescent assay. [Related pubchem assays (depositor defined):AID2582, AID2599]; assay type: functional
T5 sequence (Q9GZR1 whole entry): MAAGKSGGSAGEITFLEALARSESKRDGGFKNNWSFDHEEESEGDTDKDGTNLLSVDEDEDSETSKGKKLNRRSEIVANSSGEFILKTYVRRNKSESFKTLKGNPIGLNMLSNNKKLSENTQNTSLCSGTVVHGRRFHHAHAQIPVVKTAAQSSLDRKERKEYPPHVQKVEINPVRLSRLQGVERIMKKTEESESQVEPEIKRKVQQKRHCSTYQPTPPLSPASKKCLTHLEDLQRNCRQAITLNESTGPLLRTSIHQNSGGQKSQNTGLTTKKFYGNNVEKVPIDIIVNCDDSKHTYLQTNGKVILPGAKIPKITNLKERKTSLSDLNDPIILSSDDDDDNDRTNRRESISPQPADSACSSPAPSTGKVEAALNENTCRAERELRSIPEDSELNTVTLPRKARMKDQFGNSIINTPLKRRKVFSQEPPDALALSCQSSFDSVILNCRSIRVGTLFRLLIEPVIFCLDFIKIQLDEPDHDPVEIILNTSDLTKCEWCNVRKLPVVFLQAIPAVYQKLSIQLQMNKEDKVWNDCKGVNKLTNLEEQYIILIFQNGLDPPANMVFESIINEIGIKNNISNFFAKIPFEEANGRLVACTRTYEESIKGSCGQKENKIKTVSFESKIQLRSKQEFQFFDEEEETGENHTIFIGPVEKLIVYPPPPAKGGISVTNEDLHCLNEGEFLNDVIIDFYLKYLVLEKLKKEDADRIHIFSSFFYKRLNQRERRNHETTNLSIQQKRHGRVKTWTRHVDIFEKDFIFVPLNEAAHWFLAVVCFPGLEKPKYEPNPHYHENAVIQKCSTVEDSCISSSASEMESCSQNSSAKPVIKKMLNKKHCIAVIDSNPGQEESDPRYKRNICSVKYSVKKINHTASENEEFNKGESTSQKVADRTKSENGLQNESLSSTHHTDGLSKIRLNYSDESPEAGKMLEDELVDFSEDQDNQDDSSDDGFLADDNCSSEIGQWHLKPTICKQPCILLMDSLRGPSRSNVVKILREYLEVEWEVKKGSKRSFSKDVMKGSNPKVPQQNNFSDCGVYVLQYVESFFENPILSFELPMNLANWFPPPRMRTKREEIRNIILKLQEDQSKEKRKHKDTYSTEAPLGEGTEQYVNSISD

[12] = biological target: T6, Caspase-3 (Homo sapiens, UniProt P42574); assay: SAR Analysis of small molecule inhibitors of Sentrin-specific proteases (SENPs) using a Caspase-3 Selectivity assay. [Related pubchem assays (depositor defined):AID2540, AID2599, AID434973, AID489001]; assay type: functional
T6 sequence (P42574 whole entry): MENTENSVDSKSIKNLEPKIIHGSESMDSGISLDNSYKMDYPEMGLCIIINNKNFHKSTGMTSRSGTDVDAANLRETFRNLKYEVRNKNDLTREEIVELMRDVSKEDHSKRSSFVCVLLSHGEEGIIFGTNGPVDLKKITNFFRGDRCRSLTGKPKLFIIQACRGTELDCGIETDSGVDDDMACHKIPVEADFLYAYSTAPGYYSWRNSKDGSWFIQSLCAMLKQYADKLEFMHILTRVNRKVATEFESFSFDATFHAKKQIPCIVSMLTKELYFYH

[13] = biological target: T7, Sentrin-specific protease 7 (Homo sapiens, UniProt Q9BQF6); assay: inhibition of human SENP7 cleavage activity – biochemical, luminescence, SAR follow-up (AID 504497); assay type: functional
T7 sequence (Q9BQF6 whole entry): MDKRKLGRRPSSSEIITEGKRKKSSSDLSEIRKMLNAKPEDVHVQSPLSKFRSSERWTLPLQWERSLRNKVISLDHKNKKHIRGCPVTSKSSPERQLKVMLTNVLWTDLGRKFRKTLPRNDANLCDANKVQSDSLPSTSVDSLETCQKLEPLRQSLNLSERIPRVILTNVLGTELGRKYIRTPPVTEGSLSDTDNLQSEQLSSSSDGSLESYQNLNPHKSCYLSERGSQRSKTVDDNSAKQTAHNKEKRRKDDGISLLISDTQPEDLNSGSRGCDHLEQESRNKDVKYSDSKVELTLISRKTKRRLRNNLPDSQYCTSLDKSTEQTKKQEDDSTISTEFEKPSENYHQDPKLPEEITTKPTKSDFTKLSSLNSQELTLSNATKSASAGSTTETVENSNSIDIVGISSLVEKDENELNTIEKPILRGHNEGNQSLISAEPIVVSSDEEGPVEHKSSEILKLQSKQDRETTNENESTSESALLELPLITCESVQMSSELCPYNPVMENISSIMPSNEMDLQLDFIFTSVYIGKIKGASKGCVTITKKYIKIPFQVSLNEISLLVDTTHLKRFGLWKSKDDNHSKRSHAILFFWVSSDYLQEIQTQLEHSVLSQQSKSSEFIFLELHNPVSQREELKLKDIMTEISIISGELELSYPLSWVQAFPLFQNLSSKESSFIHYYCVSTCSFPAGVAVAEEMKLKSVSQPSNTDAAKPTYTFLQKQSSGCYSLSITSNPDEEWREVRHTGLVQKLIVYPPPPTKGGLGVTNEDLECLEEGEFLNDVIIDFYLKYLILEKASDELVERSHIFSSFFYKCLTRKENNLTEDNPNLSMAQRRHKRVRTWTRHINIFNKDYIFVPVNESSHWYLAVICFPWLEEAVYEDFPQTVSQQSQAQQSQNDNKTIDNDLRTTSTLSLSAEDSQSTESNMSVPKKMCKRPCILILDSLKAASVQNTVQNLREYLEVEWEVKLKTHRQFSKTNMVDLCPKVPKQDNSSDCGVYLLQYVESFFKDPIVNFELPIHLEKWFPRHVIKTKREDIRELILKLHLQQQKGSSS

Structure (SMILES)	IC50 [10]	IC50 [11]	IC50 [12]	IC50 [13]	further results
CSc1cc(-c2ccccc2)n(Cc2ccccc2Cl)c(=O)c1C#N	–	–	–	–	EC50 [1]: 1.92 µM (active); EC50 [2]: 43.8 µM (active); EC50 [3]: 3.67 µM (active); EC50 [4]: 10.1 µM (inconclusive); EC50 [5]: 33.6 µM (inconclusive)
CCCCOc1cccc(C2C(C(=O)c3ccc(C)o3)=C(O)C(=O)N2c2nnc(C)s2)c1 (stereo unspecified)	–	–	–	–	EC50 [6]: 20.4 µM (inactive); EC50 [7]: > 99 µM (inactive); EC50 [8]: 77.4 µM (active); EC50 [9]: 102 µM (active)
O=[N+]([O-])c1ccccc1CNCCc1c[nH]c2ccccc12	> 99 µM (inactive)	> 99 µM (inactive)	> 99 µM (inactive)	> 99 µM (inactive)	–
CN(C)c1nc(NCc2ccccc2)nc(N/N=C/c2ccc(Br)cc2)n1	> 99 µM (inactive)	> 99 µM (inactive)	> 99 µM (inactive)	> 99 µM (inactive)	–
Cc1cccc(N/N=C/c2c[nH]c3ccccc23)c1	34.5 µM (active)	32 µM (active)	> 99 µM (inactive)	18 µM (active)	–
